What was measured:
[1] = test system: Glioblastoma (U251MG); experiment: cytotoxicity in Brain Tumor Cell lines by MTT assay; conditions: 0.1 Mm-100 μM, 72 h
[2] = test system: MDA-MB-231; experiment: JC-1 assay, mitochondrial membrane depolarization; assay type: cell-based, Human; conditions: 16h
Procedure: (§1) To evaluate the in vitro apoptotic effect of recombinant lectin having the amino acid sequence of SEQ ID NO.2 in MDA-MB-231 (breast cancer) and PANG-1 (pancreatic cancer) cell line by JC-1 assay, an increase in mitochondrial membrane depolarization was used as a marker of apoptosis. […] 2 using JC-1 dye based method. […] The cell lines were grown in Dulbecco's Modified Eagle Medium (DMEM)+10% heat inactivated FBS at 37° C. (95% humidity and 5% CO2). […] Recombinant lectin having the amino acid sequence of SEQ ID NO. 2 was diluted in serum free medium. Doxorubicin was used as positive control and stock solution was prepared in dimethyl sulfoxide (DMSO). […] The cells were then incubated overnight under growth conditions to allow the cell recovery and exponential growth. Cells were treated with the recombinant lectin of SEQ ID NO. […] Following respective treatments the cells in the above plate were incubated for 16h in CO2 incubator at 37° C., 5% CO2 and 95% humidity.
(§2) After 16h of incubation, the supernatants were discarded and 100 μL of JC1-dye solution (prepared by diluting 1 mM DMSO stock in to 10 μM in 1×PBS) was added to each well. The cells were then incubated with the dye in CO2 incubator at 37° C. for 15 min. After 15 min of incubation, the supernatant was removed and the cells were washed twice with 1×PBS and then 100 μL of 1×PBS was added to each well. Red fluorescence (excitation 550 nm, emission 600 nm) and green fluorescence (excitation 485 nm, emission 535 nm) were measured using Biotek Synergy FIT plate reader. The mitochondrial membrane potential […] was calculated as the ratio of intensity of red fluorescence to intensity of green fluorescence described as follows:
(§3) ΔΨM=Intensity of red fluorescence/Intensity of green fluorescence
(§4) The percentage decrease of Red fluorescence/Green fluorescence corresponding to each treatment was calculated using the following formula:
(§5) Where X=Δψm corresponding to treated cells R=ΔΨM corresponding to control wells.

[3] = test system: PANC-1; experiment: JC-1 assay, mitochondrial membrane depolarization; assay type: cell-based, Human; conditions: 16h
Procedure: as §1, §2, §3, §4, §5

[4] = test system: MDA-MB-231; experiment: Annexin-V staining (flow cytometry); assay type: cell-based, Human; conditions: 24 h
Procedure: (§6) The cell lines were maintained in DMEM+10% FBS (heat inactivated) at 37° C. with 5% CO2, and 95% humidity. Antibiotics Penicillin (100 U/mL) and Streptomycin (100 μg/mL) were added to the medium.
(§7) The stock solution of recombinant lectin having the amino acid sequence of SEQ ID NO. […] Doxorubicin was used as positive control and stock solution was prepared in DMSO.
(§8) Cells were counted using hemocytometer and plated in culture plates at the density of 0.4×10^6 cells/well in DMEM+10% FBS in 6-well plates. Cells were incubated overnight to allow the cell recovery and exponential growth. Following overnight incubation, cells were treated with Lectin having the amino acid sequence of SEQ ID NO. 2 in DMEM+0% FBS at concentrations ranging from 2.5 μg/mL to 80 μg/mL. Untreated cells were included as Control group for sample. Cells treated with Doxorubicin were included as Positive Control group. DMSO treated cells were included as control group for Doxorubicin. After treatment, cells were incubated for a time period of 24 h.
(§9) Following incubation, the pro-apoptotic effect was estimated using Annexin assay kit as follows: Annexin reagent contains Annexin-V+7-AAD stain, which differentially labels apoptotic cells in different phases. Four populations of cells can be determined from the flow cytometric plots as follows: • a) Upper Left (UL)—7-AAD(+)/Annexin(−) or Necrotic cells • b) Upper Right (UR)—7-AAD(+)/Annexin(+) or Late apoptotic cells • c) Lower Left (LL)—7-AAD(−)/Annexin(−) or Viable/non-apoptotic cells • d) Lower Right (LR)—7-AAD(−)/Annexin(+) or Early apoptotic cells
(§10) Cells were gently harvested into pre-labeled sterile centrifuge tubes and centrifuged at 300×g for 5-7 min. Supernatant were discarded and the pellet was resuspended in 200 μl of fresh culture medium.
(§11) 100 μl of cell suspension was transferred into pre-labeled sterile centrifuge tubes.
(§12) 100 μl of Annexin-V reagent was added to each tube and incubated for 30 min at RT in dark.
(§13) Cells stained for Annexin-V were then transferred into 96-well plates and acquired on flow cytometer (Guava technologies). Percentage of cells in early apoptotic, late apoptotic and necrotic phase were determined.
(§14) Fold increase in apoptotic cells (treated with Test Items) was determined as compared to Control (untreated cells).

[5] = test system: PANC-1; experiment: Annexin-V staining (flow cytometry); assay type: cell-based, Human; conditions: 24 h
Procedure: as §6, §7, §8, §9, §10, §11, §12, §13, §14

COc1cccc2c1C(=O)c1c(O)c3c(c(O)c1C2=O)C[C@@](O)(C(=O)CO)C[C@@H]3O[C@H]1C[C@H](N)[C@H](O)[C@H](C)O1 [Doxorubicin, reference compound]
% of cytotoxicity [1]: 11.2%-78.6%
Average Green fluorescence ([2]; 0.1 μM): 473.0
Average Red fluorescence ([2]; 0.1 μM): 465.3
Percentage decrease in MMP (%) ([2]; 0.1 μM): 58.8%
Average Green fluorescence ([2]; 1 μM): 345.5
Average Red fluorescence ([2]; 1 μM): 343.3
Percentage decrease in MMP (%) ([2]; 1 μM): 58.3%
Average Green fluorescence ([2]; 10 μM): 534.0
Average Red fluorescence ([2]; 10 μM): 580.7
Percentage decrease in MMP (%) ([2]; 10 μM): 54.4%
Average Green fluorescence ([2]; 25 μM): 336.3
Average Red fluorescence ([2]; 25 μM): 376.7
Percentage decrease in MMP (%) ([2]; 25 μM): 53.0%
Average Green fluorescence ([2]; 50 μM): 318.0
Average Red fluorescence ([2]; 50 μM): 663.7
Percentage decrease in MMP (%) ([2]; 50 μM): 12.5%
Average Green fluorescence ([3]; 0.1 μM): 258.5
Average Red fluorescence ([3]; 0.1 μM): 653.7
Percentage decrease in MMP (%) ([3]; 0.1 μM): −21.0%
Average Green fluorescence ([3]; 1 μM): 282.3
Average Red fluorescence ([3]; 1 μM): 555.3
Percentage decrease in MMP (%) ([3]; 1 μM): 5.9%
Average Green fluorescence ([3]; 10 μM): 208.3
Average Red fluorescence ([3]; 10 μM): 350.0
Percentage decrease in MMP (%) ([3]; 10 μM): 19.6%
Average Green fluorescence ([3]; 25 μM): 186.3
Average Red fluorescence ([3]; 25 μM): 283.0
Percentage decrease in MMP (%) ([3]; 25 μM): 27.3%
Average Green fluorescence ([3]; 50 μM): 161.7
Average Red fluorescence ([3]; 50 μM): 192.5
Percentage decrease in MMP (%) ([3]; 50 μM): 43.0%
% Population of cells, LL Annex− 7AAD− Viable ([4]; 10 μM): 0.7%
% Population of cells, LR Annex+ 7AAD− Early apoptotic ([4]; 10 μM): 6.8%
% Population of cells, UL Annex− 7AAD+ Necrotic ([4]; 10 μM): 0.0%
% Population of cells, UR Annex+ 7AAD+ Late apoptotic ([4]; 10 μM): 92.5%
% Population of cells, LL Annex− 7AAD− Viable ([4]; 100 μM): 0.0%
% Population of cells, LR Annex+ 7AAD− Early apoptotic ([4]; 100 μM): 0.0%
% Population of cells, UL Annex− 7AAD+ Necrotic ([4]; 100 μM): 0.0%
% Population of cells, UR Annex+ 7AAD+ Late apoptotic ([4]; 100 μM): 100.0%
% Population of cells, LL Annex− 7AAD− Viable ([5]; 10 μM): 25.6%
% Population of cells, LR Annex+ 7AAD− Early apoptotic ([5]; 10 μM): 6.0%
% Population of cells, UL Annex− 7AAD+ Necrotic ([5]; 10 μM): 0.5%
% Population of cells, UR Annex+ 7AAD+ Late apoptotic ([5]; 10 μM): 67.9%
% Population of cells, LL Annex− 7AAD− Viable ([5]; 100 μM): 1.3%
% Population of cells, LR Annex+ 7AAD− Early apoptotic ([5]; 100 μM): 1.9%
% Population of cells, UL Annex− 7AAD+ Necrotic ([5]; 100 μM): 0.1%
% Population of cells, UR Annex+ 7AAD+ Late apoptotic ([5]; 100 μM): 96.6%

— patent US20230348564A1, “ANTI-CANCER PROTEINS” (UNICHEM LABORATORIES LTD, priority 2020, published 2023)
